The test system of one data set is CHIKV. The data set can be described thus: CHIKV virus titer reduction (VTR) assay in NHDF cells. It is filed as cell-based. To be noted: Chikungunya virus; for log reduction at 10 µM: CHIKV titer reduction at 10 μM, normal human dermal fibroblasts (NHDF) cells; for EC90: effective concentration of 90% inhibition of virus in a VTR assay, NHDF cells.
Data set [1] concerns CHIKV linked NanoLuc luciferase reporter. The data set can be described thus: microbe, parasite or virus in culture. It is filed as cell-based. Conditions: Chikungunya virus, read-out: CHIKV EC50.
The subject of another data set is VEEV (TC-83). The data set can be described thus: microbe, parasite or virus in culture. Conditions: Venezuelan equine encephalitis virus, read-out: VEEV EC50. It is filed as cell-based.
A further data set concerns VEEV. As to the kind of experiment: microbe, parasite or virus in culture. It is filed as cell-based. Conditions: Venezuelan equine encephalitis virus, NHDF; for EC90: read-out: VEEV EC90; for log reduction at 10 µM: read-out: VEEV VTR.
A further data set can be described thus: in vitro. To be noted: human.

A value given as a limit tells only on which side of the number the result lay.

This is an account of results in patent publication US11932626B2, “2-pyrimidone analogs as potent antiviral agents against Alphaviruses” (priority 2020, dated 2024).

`O=C(COc1cc(Cl)[nH]c(=O)n1)NC12CC3CC(CC(C3)C1)C2` [compound 18, N-(Adamantan-1-Yl)-2-((6-Chloro-2-Oxo-1,2-Dihydropyrimidin-4-Yl)Oxy)Acetamide]: the values for the log reduction at 10 µM with CHIKV and in the data set with VEEV were 5.19 and 1, respectively. In addition, the EC90 in the data set on CHIKV was 0.51 µM; with VEEV, 5.65 µM. For the same molecule, the EC50 was determined as 0.81 µM in data set [1] and 16.1 µM with VEEV (TC-83). The molecule also registered a CC50 in the data set “in vitro” of over 40 µM.

As for `O=C(COc1cc(OC2CC(F)(F)C2)[nH]c(=O)n1)NC12CC3CC(CC(C3)C1)C2` [compound 47, N-(Adamantan-1-Yl)-2-((6-(3,3-Difluorocyclobutoxy)-2-Oxo-1,2-Dihydropyrimidin-4-Yl)Oxy)Acetamide], the log reduction at 10 µM in the data set with CHIKV came out at 5.66; in the data set with VEEV, 0.28. In addition, the figures for the EC90 in the data set with CHIKV and in the data set on VEEV were 0.8 µM and over 10 µM, respectively. The EC50 was 6.78 µM in data set [1] and over 40 µM in the data set on VEEV (TC-83). The CC50 in the data set “in vitro” is over 40 µM.

In the case of `O=C(COc1cc(C2CC2)[nH]c(=O)n1)NC12CC3CC(CC(C3)C1)C2` [compound 11, N-(Adamantan-1-Yl)-2-((6-Cyclopropyl-2-Oxo-1,2-Dihydropyrimidin-4-Yl)Oxy)Acetamide], the log reduction at 10 µM with CHIKV was 1.05; with VEEV it was 2.97. The EC90 amounted to 0.56 µM with CHIKV and 1.1 µM with VEEV. Further, the EC50 in data set [1] was 0.24 µM; in the data set with VEEV (TC-83), 20.6 µM. In addition, in the data set “in vitro”, the CC50 was over 40 µM.

Regarding `O=C(COc1cc(N2CC(F)(F)C2)[nH]c(=O)n1)NC12CC3CC(CC(C3)C1)C2` [compound 20, N-(Adamantan-1-Yl)-2-((6-(3,3-Difluoroazetidin-1-Yl)-2-Oxo-1,2-Dihydropyrimidin-4-Yl)Oxy)Acetamide], the values for the log reduction at 10 µM in the data set on CHIKV and in the data set on VEEV were 3.49 and 6.63, respectively. The EC90 worked out at 0.067 µM in the data set on CHIKV and 0.4 µM in the data set with VEEV. For the same molecule, the EC50 in data set [1] was under 0.078 µM; with VEEV (TC-83), 2.01 µM. The molecule also yielded a CC50 in the data set “in vitro” of over 40 µM.

For the molecule `O=C(COc1cc(N2CCOCC2)[nH]c(=O)n1)NC12CC3CC(CC(C3)C1)C2` [compound 19, N-(Adamantan-1-Yl)-2-((6-Morpholino-2-Oxo-1,2-Dihydropyrimidin-4-Yl)Oxy)Acetamide], the values for the log reduction at 10 µM with CHIKV and with VEEV were 4.84 and 4.4, respectively. Besides, the EC90 turned out to be 0.74 µM in the data set on CHIKV and 3.2 µM in the data set on VEEV. Further, the figures for the EC50 (in data set [1]; in the data set on VEEV (TC-83)) were 2.38 µM and 33.3 µM, respectively. In “in vitro”, this molecule returned a CC50 of over 40 µM.

Consider `O=C(COc1nc(=O)[nH]c2c1CCC2)NC12CC3CC(CC(C3)C1)C2` [compound 21, N-(Adamantan-1-Yl)-2-((2-Oxo-2,5,6,7-Tetrahydro-1H-Cyclopenta[D]Pyrimidin-4-Yl)Oxy)Acetamide], for which the log reduction at 10 µM stood at 4.26 in the data set with CHIKV and 5.2 with VEEV. Moreover, the results for the EC90 in the data set on CHIKV and in the data set with VEEV were 0.3 µM and 1 µM, respectively. For the same molecule, the EC50 in data set [1] is 0.53 µM; with VEEV (TC-83) it was 15.7 µM. In the data set “in vitro”, this molecule displayed a CC50 of over 40 µM.

Consider `O=C(COc1nc(=O)[nH]c(N2CC(F)(F)C2)c1F)NC12CC3CC(CC(C3)C1)C2` [compound 35, N-(Adamantan-1-Yl)-2-((6-(3,3-Difluoroazetidin-1-Yl)-5-Fluoro-2-Oxo-1,2-Dihydropyrimidin-4-Yl)Oxy)Acetamide], for which the log reduction at 10 µM with CHIKV was 4; with VEEV, 3.35. In addition, the EC90 in the data set on CHIKV stood at 0.051 µM; in the data set on VEEV, 1.5 µM. Further, the EC50 in data set [1] is 0.7 µM; with VEEV (TC-83), 5.19 µM. This molecule also gave a CC50 in the data set “in vitro” of over 40 µM.

Take `O=C(COc1nc(=O)[nH]cc1F)NC12CC3CC(CC(C3)C1)C2` [compound 26, N-(ADAMANTAN-1-YL)-2-((5-FLUORO-2-OXO-1,2-DIHYDROPYRIMIDIN-4-YL)OXY)ACETAMIDE]: the figures for the log reduction at 10 µM in the data set on CHIKV and in the data set with VEEV were 5.19 and 3.22, respectively. The results for the EC90 with CHIKV and in the data set on VEEV were 0.3 µM and 0.1 µM, respectively. Besides, the EC50 in data set [1] was 3.15 µM; with VEEV (TC-83), over 40 µM. In “in vitro”, this molecule showed a CC50 of over 40 µM.

Regarding `Cc1[nH]c(=O)nc(SCC(=O)NC23CC4CC(CC(C4)C2)C3)c1C(=O)O` [compound 38, 4-((2-((Adamantan-1-Yl)Amino)-2-Oxoethyl)Thio)-6-Methyl-2-Oxo-1,2-Dihydropyrimidine-5-Carboxylic Acid], the log reduction at 10 µM with CHIKV came out at 1.19; in the data set on VEEV, 0.23. Besides, the EC50 (in data set [1]; in the data set on VEEV (TC-83)) was over 40 µM throughout. In addition, the CC50 in the data set “in vitro” was over 40 µM.

Take `O=C(CSc1cc[nH]c(=O)n1)NC1C2CC3CC(C2)CC1C3` (centres unmarked) [compound 4, N-(Adamantan-2-Yl)-2-((2-Oxo-1,2-Dihydropyrimidin-4-Yl)Thio)Acetamide]: the log reduction at 10 µM in the data set with CHIKV was found to be 7.3; in the data set with VEEV it was 5.88. Besides, the 90% effect level in the data set with CHIKV (EC90) was put at 0.61 µM. The EC50 in data set [1] is 0.437 µM; with VEEV (TC-83), 1.68 µM. This molecule also had a CC50 in “in vitro” of over 40 µM.

On to `CC(C)(C#N)COc1cc(OCC(=O)NC23CC4CC(CC(C4)C2)C3)nc(=O)[nH]1` [compound 52, N-(Adamantan-1-Yl)-2-((6-(2-Cyano-2-Methylpropoxy)-2-Oxo-1,2-Dihydropyrimidin-4-Yl)Oxy)Acetamide], for which the figures for the log reduction at 10 µM in the data set with CHIKV and with VEEV were 2.42 and 2.5, respectively. Further, the EC90 in the data set with CHIKV and in the data set with VEEV was 2.5 µM each time. Further, the EC50 in data set [1] was 13.7 µM; in the data set with VEEV (TC-83) it was over 40 µM. This molecule also had a CC50 in “in vitro” of over 40 µM.

Consider `COCCOc1cc(OCC(=O)NC23CC4CC(CC(C4)C2)C3)nc(=O)[nH]1` [compound 49, N-(Adamantan-1-Yl)-2-((6-(2-Methoxyethoxy)-2-Oxo-1,2-Dihydropyrimidin-4-Yl)Oxy)Acetamide], for which the log reduction at 10 µM with CHIKV was determined as 3.73; in the data set with VEEV, 0. Further, the results for the EC90 in the data set with CHIKV and in the data set with VEEV were 1.3 µM and over 10 µM, respectively. For the same molecule, the EC50 was determined as 3.08 µM in data set [1] and 38.6 µM with VEEV (TC-83). The molecule further gave a CC50 in the data set “in vitro” of over 40 µM.

Consider `COC(=O)c1c(SCC(=O)NC23CC4CC(CC(C4)C2)C3)nc(=O)[nH]c1C` [compound 1], for which, in the data set with CHIKV, the log reduction at 10 µM was determined as 6.9. For the same molecule, the EC90 worked out at 0.089 µM in the data set with CHIKV and 1.9 µM in the data set on VEEV. Further, the figures for the EC50 (in data set [1]; with VEEV (TC-83)) were 0.66 µM and 4.33 µM, respectively. For the same molecule, in “in vitro”, the CC50 is over 127 µM.

Regarding `CCC(C)Oc1cc(OCC(=O)NC23CC4CC(CC(C4)C2)C3)nc(=O)[nH]1` (centres unmarked) [compound 56, N-(adamantan-1-yl)-2-((6-(sec-butoxy)-2-oxo-1,2-dihydropyrimidin-4-yl)oxy)acetamide], the log reduction at 10 µM with CHIKV came out at 6.6; in the data set with VEEV it was 0. In addition, the EC90 in the data set on CHIKV was 0.17 µM; with VEEV, over 10 µM. Further, the EC50 in data set [1] was found to be 0.701 µM; with VEEV (TC-83) it was 16.2 µM. In “in vitro”, the CC50 was over 40 µM.

`CC(C)Cc1cc(OCC(=O)NC23CC4CC(CC(C4)C2)C3)nc(=O)[nH]1` [compound 10, N-(Adamantan-1-Yl)-2-((6-Isobutyl-2-Oxo-1,2-Dihydropyrimidin-4-Yl)Oxy)Acetamide]: the log reduction at 10 µM in the data set with CHIKV amounted to 8.16; in the data set with VEEV, 2.74. The EC90 was determined as 0.31 µM in the data set on CHIKV and 1.2 µM with VEEV. The values for the EC50 (in data set [1]; in the data set on VEEV (TC-83)) were 1.15 µM and 19.7 µM, respectively. Besides, the CC50 in the data set “in vitro” was over 40 µM.

Turning to `Cc1c[nH]c(=O)nc1OCC(=O)NC12CC3CC(CC(C3)C1)C2` [compound 25, N-(Adamantan-1-Yl)-2-((5-Methyl-2-Oxo-1,2-Dihydropyrimidin-4-Yl)Oxy)Acetamide], the log reduction at 10 µM was 4.91 in the data set on CHIKV and 3.04 in the data set with VEEV. The EC90 in the data set on CHIKV was 2.1 µM; in the data set on VEEV, 2.83 µM. Besides, the EC50 in data set [1] was found to be 1.97 µM; in the data set with VEEV (TC-83) it was 16.1 µM. In “in vitro”, this molecule registered a CC50 of over 40 µM.

On to `CCOc1cc(OCC(=O)NC23CC4CC(CC(C4)C2)C3)nc(=O)[nH]1` [compound 55, N-(Adamantan-1-Yl)-2-((6-Ethoxy-2-Oxo-1,2-Dihydropyrimidin-4-Yl)Oxy)Acetamide], for which the log reduction at 10 µM is 4 with CHIKV and 0.05 in the data set on VEEV. The figures for the EC90 in the data set on CHIKV and with VEEV were 0.14 µM and over 10 µM, respectively. Also, the concentration for a half-maximal effect (EC50) in data set [1] was found to be 0.179 µM; with VEEV (TC-83), 2.78 µM. Further, the CC50 in the data set “in vitro” is over 40 µM.

With `Cc1[nH]c(=O)nc(SCC(=O)NC23CC4CC(CC(C4)C2)C3)c1C#N` [compound 2], the log reduction at 10 µM is 1.25 in the data set with CHIKV and 1.1 in the data set with VEEV. In addition, the EC50 was 22.9 µM in data set [1] and over 40 µM with VEEV (TC-83). For the same molecule, the CC50 in the data set “in vitro” was over 40 µM.

Take `O=C(CSc1cc[nH]c(=O)n1)NC12CC3CC(CC(C3)C1)C2` [compound 3, N-(Adamantan-1-Yl)-2-((2-Oxo-1,2-Dihydropyrimidin-4-Yl)Thio)Acetamide]: the log reduction at 10 µM in the data set on CHIKV was 7.44; with VEEV, 4.49. The EC90 with CHIKV and with VEEV was 0.31 µM throughout. Besides, the EC50 in data set [1] worked out at 0.5 µM; with VEEV (TC-83), 2.5 µM. Besides, the CC50 in “in vitro” is over 40 µM.

`O=C(COc1nc(=O)[nH]c2c1CCCC2)NC12CC3CC(CC(C3)C1)C2` [compound 22, N-(Adamantan-1-Yl)-2-((2-Oxo-1,2,5,6,7,8-Hexahydroquinazolin-4-Yl)Oxy)Acetamide]: the log reduction at 10 µM was found to be 4.94 in the data set with CHIKV and 7.02 in the data set on VEEV. Besides, the 90% effect concentration (EC90) with CHIKV stood at 0.045 µM; in the data set with VEEV, 1.44 µM. In addition, the EC50 was 0.64 µM in data set [1] and 8.7 µM in the data set on VEEV (TC-83). This molecule also yielded a CC50 in the data set “in vitro” of over 40 µM.
